± gives the expanded uncertainty stated by the source.
Assays:
[1] = Molar enthalpy of transition or fusion; conditions: Crystal
[2] = for mass density: 101.33 kPa, Liquid, Pycnometric method

CCCCn1cc[n+](C)c1.F[P-](F)(F)(F)(F)F [1-butyl-3-methylimidazolium hexafluorophosphate]
Conditions | Molar enthalpy of transition or fusion [kJ/mol]
[1] | 19.6 ± 0.042

[2]
Conditions | Triple point temperature [K] | mass density [kg/m3]
298.23 K | – | 1365.95 ± 0.55
302.89 K | – | 1362.05 ± 0.56
307.9 K | – | 1357.94 ± 0.57
312.67 K | – | 1353.99 ± 0.58
317.58 K | – | 1349.92 ± 0.59
322.33 K | – | 1346.02 ± 0.61
327.16 K | – | 1342.02 ± 0.62
344.23 K | – | 1328.03 ± 0.65
348.93 K | – | 1324.35 ± 0.67
353.47 K | – | 1320.69 ± 0.68
Crystal | 283.51 ± 0.12 | –

Conditions | Glass transition temperature [°C]
[2], Glass, Adiabatic calorimetry | -82.5 ± 2
